Data from publication PMC7031696 (Cell chemical biology, 2019).
Where two headings read alike, the source gives them in different places.

How the values were obtained:
[1] = tested on: 3D7-MR4 trophozoite parasite-infected RBCs; test: Metabolomic profiling (hydrophilic metabolite changes, UHPLC-MS); type: cell-based, Plasmodium falciparum
[2] = tested on: asynchronous 3D7-A10 parasite cultures; test: Standard 72-h exposure asexual blood stage susceptibility assay (IC50^72h); type: cell-based, Plasmodium falciparum; conditions: Plasmodium falciparum, 3D7, 72 h, read-out: Overall (72hr assay) Mean IC50 (IC50^72h)
[3] = tested on: Plasmodium falciparum 3D7-A10 parasites; test: Stage specificity assay (8-h exposure of synchronized stages, IC50^8h); type: cell-based; conditions: for IC50: Plasmodium falciparum

## O=C(Nc1ccsc1C(=O)NC1CCCCC1)c1ccc(F)cc1 [MMV665939]
[1]; metabolite 3-phosphoglycerate, log2 fold change
  Log2(fold changes) 3-phosphoglycerate: -0.3920
[1]; metabolite 4-Pyridoxic acid, log2 fold change
  Log2(fold changes) 4-Pyridoxic acid: -0.0874
[1]; metabolite 4-aminobutyrate, log2 fold change
  Log2(fold changes) 4-aminobutyrate: -0.3253
[1]; metabolite 4-phosphopantetheine, log2 fold change
  Log2(fold changes) 4-phosphopantetheine: 0.0000
[1]; metabolite 4-phosphopantothenate, log2 fold change
  Log2(fold changes) 4-phosphopantothenate: -0.8024
[1]; metabolite 5-aminopentanoic acid, log2 fold change
  Log2(fold changes) 5-aminopentanoic acid: 0.0000
[1]; metabolite 5-methyl-THF, log2 fold change
  Log2(fold changes) 5-methyl-THF: 0.0000
[1]; metabolite 5-phosphoribosyl-1-pyrophosphate, log2 fold change
  Log2(fold changes) 5-phosphoribosyl-1-pyrophosphate: 0.0000
[1]; metabolite 6-phospho-D-gluconate, log2 fold change
  Log2(fold changes) 6-phospho-D-gluconate: -0.2234
[1]; metabolite HVDD
  Log2(fold change) HVDD: -0.9968
[1]; metabolite Hydroxyisocaproic acid
  Log2(fold change) Hydroxyisocaproic acid: 0.0000
[1]; metabolite IDP
  Log2(fold change) IDP: 0.0000
[1]; metabolite IMP
  Log2(fold change) IMP: 0.0265
[1]; metabolite Inositol
  Log2(fold change) Inositol: 0.0000
[1]; metabolite Isopentyl-PP
  Log2(fold change) Isopentyl-PP: -0.3712
[1]; metabolite L-arginino-succinate
  Log2(fold change) L-arginino-succinate: -0.4465
[1]; metabolite LD
  Log2(fold change) LD: -0.2140
[1]; metabolite Myristoyl/tetradecanoyl-CoA
  Log2(fold change) Myristoyl/tetradecanoyl-CoA: 0.0000
[1]; metabolite N-Acetyl-L-alanine
  Log2(fold change) N-Acetyl-L-alanine: 1.1605
[1]; metabolite N-acetyl-L-ornithine
  Log2(fold change) N-acetyl-L-ornithine: -0.6303
[1]; metabolite N-acetyl-glucosamine-1/6-phosphate
  Log2(fold change) N-acetyl-glucosamine-1/6-phosphate: 0.0837
[1]; metabolite N-acetyl-glutamate
  Log2(fold change) N-acetyl-glutamate: -0.0309
[1]; metabolite N-acetyl-glutamine
  Log2(fold change) N-acetyl-glutamine: 0.1208
[1]; metabolite N-carbamoyl-L-aspartate
  Log2(fold change) N-carbamoyl-L-aspartate: 0.2551
[1]; metabolite NAD+
  Log2(fold change) NAD+: -0.2042
[1]; metabolite NADH
  Log2(fold change) NADH: 0.1443
[1]; metabolite NADP+
  Log2(fold change) NADP+: -0.0542
[1]; metabolite NADPH
  Log2(fold change) NADPH: 0.2171
[1]; metabolite O-acetyl-L-serine
  Log2(fold change) O-acetyl-L-serine: -0.2734
[1]; metabolite Octoluse 8/1P
  Log2(fold change) Octoluse 8/1P: -0.3337
[1]; metabolite Octoluse Bisphosphate
  Log2(fold change) Octoluse Bisphosphate: -0.2536
[1]; metabolite PD
  Log2(fold change) PD: -0.8727
[1]; metabolite PE
  Log2(fold change) PE: -0.7610
[1]; metabolite PEE
  Log2(fold change) PEE: -0.6388
[1]; metabolite PEEK
  Log2(fold change) PEEK: -0.8443
[1]; metabolite PVNF
  Log2(fold change) PVNF: -0.9198
[1]; metabolite Pyroglutamic acid
  Log2(fold change) Pyroglutamic acid: 0.4907
[1]; metabolite Pyrophosphate
  Log2(fold change) Pyrophosphate: 0.0000
[1]; metabolite Ribose-5-phosphate
  Log2(fold change) Ribose-5-phosphate: -0.6260
[1]; metabolite S-adenosyl-L-homocysteine
  Log2(fold change) S-adenosyl-L-homocysteine: 0.0358
[1]; metabolite S-adenosyl-L-methioninamine
  Log2(fold change) S-adenosyl-L-methioninamine: -2.1855
[1]; metabolite S-adenosyl-L-methionine
  Log2(fold change) S-adenosyl-L-methionine: 0.0000
[1]; metabolite S-methyl-5'-thioadenosine
  Log2(fold change) S-methyl-5'-thioadenosine: 0.4868
[1]; metabolite SD
  Log2(fold change) SD: -0.5679
[1]; metabolite SDL
  Log2(fold change) SDL: 0.0000
[1]; metabolite SID
  Log2(fold change) SID: -0.5481
[1]; metabolite Sedoheptulose bisphosphate
  Log2(fold change) Sedoheptulose bisphosphate: -0.1986
[1]; metabolite Thiamine pyrophosphate
  Log2(fold change) Thiamine pyrophosphate: -0.1355
[1]; metabolite UDP-D-glucose, log2 fold change
  Log2(fold changes) UDP-D-glucose: 0.0446
[1]; metabolite UDP-D-glucuronate, log2 fold change
  Log2(fold changes) UDP-D-glucuronate: -0.0014
[1]; metabolite UDP-N-acetyl-glucosamine, log2 fold change
  Log2(fold changes) UDP-N-acetyl-glucosamine: -0.0268
[1]; metabolite UDP, log2 fold change
  Log2(fold changes) UDP: -0.1898
[1]; metabolite UMP, log2 fold change
  Log2(fold changes) UMP: -0.0875
[1]; metabolite UTP, log2 fold change
  Log2(fold changes) UTP: 0.0000
[1]; metabolite hydroxyphenylpyruvate
  Log2(fold change) hydroxyphenylpyruvate: 0.0000
[1]; metabolite hydroxyproline/Aminolevulinate
  Log2(fold change) hydroxyproline/Aminolevulinate: -0.3323
[1]; metabolite hypoxanthine
  Log2(fold change) hypoxanthine: -0.1428
[1]; metabolite indole
  Log2(fold change) indole: 0.0000
[1]; metabolite inosine
  Log2(fold change) inosine: -0.4892
[1]; metabolite isoleucine
  Log2(fold change) isoleucine: 0.0000
[1]; metabolite lactate
  Log2(fold change) lactate: -0.3845
[1]; metabolite leucine
  Log2(fold change) leucine: 0.0000
[1]; metabolite lysine
  Log2(fold change) lysine: -0.8365
[1]; metabolite malate
  Log2(fold change) malate: -0.6264
[1]; metabolite maleic acid
  Log2(fold change) maleic acid: -0.6374
[1]; metabolite methionine
  Log2(fold change) methionine: -0.3116
[1]; metabolite myo-inositol
  Log2(fold change) myo-inositol: -0.4650
[1]; metabolite nicotinamide mononucleotide
  Log2(fold change) nicotinamide mononucleotide: -0.2358
[1]; metabolite nicotinate
  Log2(fold change) nicotinate: 0.0360
[1]; metabolite ornithine
  Log2(fold change) ornithine: -0.4311
[1]; metabolite orotate
  Log2(fold change) orotate: -0.0365
[1]; metabolite orotidine-5'-phosphate
  Log2(fold change) orotidine-5'-phosphate: -0.4342
[1]; metabolite oxaloacetate
  Log2(fold change) oxaloacetate: -0.0755
[1]; metabolite p-aminobenzoate
  Log2(fold change) p-aminobenzoate: 0.0000
[1]; metabolite p-hydroxybenzoate
  Log2(fold change) p-hydroxybenzoate: 0.0000
[1]; metabolite pantothenate
  Log2(fold change) pantothenate: -0.2337
[1]; metabolite phenylalanine
  Log2(fold change) phenylalanine: -0.4167
[1]; metabolite phenylpyruvate
  Log2(fold change) phenylpyruvate: 0.0000
[1]; metabolite phosphoenolpyruvate
  Log2(fold change) phosphoenolpyruvate: -0.3202
[1]; metabolite prephenate
  Log2(fold change) prephenate: -0.6614
[1]; metabolite proline
  Log2(fold change) proline: -0.2978
[1]; metabolite pyridoxine
  Log2(fold change) pyridoxine: -0.1996
[1]; metabolite pyruvate
  Log2(fold change) pyruvate: -0.7329
[1]; metabolite riboflavin
  Log2(fold change) riboflavin: 0.5336
[1]; metabolite ribose
  Log2(fold change) ribose: -0.3218
[1]; metabolite ribose-phosphate
  Log2(fold change) ribose-phosphate: -0.6165
[1]; metabolite ribulose-5-phosphate
  Log2(fold change) ribulose-5-phosphate: -0.5816
[1]; metabolite serine
  Log2(fold change) serine: -0.3504
[1]; metabolite sn-glycerol-3-phosphate
  Log2(fold change) sn-glycerol-3-phosphate: -0.3556
[1]; metabolite succinate/Methylmalonic acid
  Log2(fold change) succinate/Methylmalonic acid: -0.3870
[1]; metabolite succinyl-CoA/methylmalonyl-CoA
  Log2(fold change) succinyl-CoA/methylmalonyl-CoA: 0.0000
[1]; metabolite taurine
  Log2(fold change) taurine: -0.0411
[1]; metabolite thiamine
  Log2(fold change) thiamine: -0.2425
[1]; metabolite threonine/homoserine
  Log2(fold change) threonine/homoserine: -0.2222
[1]; metabolite thymidine
  Log2(fold change) thymidine: 0.0000
[1]; metabolite thymine, log2 fold change
  Log2(fold changes) thymine: 0.0000
[1]; metabolite trehalose-6-Phosphate, log2 fold change
  Log2(fold changes) trehalose-6-Phosphate: 0.0000
[1]; metabolite tryptophan, log2 fold change
  Log2(fold changes) tryptophan: -1.0924
[1]; metabolite tyrosine, log2 fold change
  Log2(fold changes) tyrosine: -0.3159
[1]; metabolite uridine, log2 fold change
  Log2(fold changes) uridine: 0.0000
[2]
  IC50: 0.478 µM
[3]; 3D7-A10
  Ratio lowest IC50 8hr/IC50 72hr: 28.2
[3]; 3D7, read-out: Early rings Mean IC50 (IC50^8h), 8-h exposure 0–8 hr, 3D7-A10, survival at 60 h
  IC50: 17 µM
[3]; 3D7, read-out: Early trophozoites Mean IC50 (IC50^8h), 8-h exposure 16–24 hr, 3D7-A10, survival at 60 h
  IC50: 13.5 µM
[3]; 3D7, read-out: Late rings Mean IC50 (IC50^8h), 8-h exposure 8–16 hr, 3D7-A10, survival at 60 h
  IC50: 22.9 µM
[3]; 3D7, read-out: Late trophozoites Mean IC50 (IC50^8h), 8-h exposure 24–32 hr, 3D7-A10, survival at 60 h
  IC50: 39 µM
[3]; 3D7, read-out: Schizonts Mean IC50 (IC50^8h), 8-h exposure 32–40 hr, 3D7-A10, survival at 60 h
  IC50: 54.4 µM
[3]; most susceptible stages
  IC50^8h relative to IC50^72h value: > 28 fold
